PubChem BioAssay AID1963444 (Molecular Pharmacology Branch, DTP, NCI, 2024)

Tested on: HSSY-II complex spheroid growth, percent test/control
Assay: Anticancer human tumor HSSY-II cell line growth inhibition [Asc];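 note: spheroids exposed to drug for 7 days before reading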
Conditions: for IC50: curve of first compound; for viability, T/C: stronger effect = lower value
Method in brief: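 Complex spheroids combining tumor cells with HUVEC endothelial cells and human MSCs, at 37 degrees C, 5% CO2; agents tested alone or combined, half-log dilutions from at or near clinical Cmax, or 10 microM if Cmax unknown.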

[1] = second compound 0.01 µM, first compound 0.0316 µM
[2] = second compound 0.01 µM, first compound 0.1 µM
[3] = second compound 0.01 µM, first compound 0.316 µM
[4] = second compound 0.01 µM, first compound 1 µM
[5] = second compound 0.0316 µM, first compound 0.0316 µM
[6] = second compound 0.0316 µM, first compound 0.1 µM
[7] = second compound 0.0316 µM, first compound 0.316 µM
[8] = second compound 0.0316 µM, first compound 1 µM
[9] = second compound 0.1 µM, first compound 0.0316 µM
[10] = second compound 0.1 µM, first compound 0.1 µM
[11] = second compound 0.1 µM, first compound 0.316 µM
[12] = second compound 0.1 µM, first compound 1 µM
[13] = second compound 0.316 µM, first compound 0.0316 µM
[14] = second compound 0.316 µM, first compound 0.1 µM
[15] = second compound 0.316 µM, first compound 0.316 µM
[16] = second compound 0.316 µM, first compound 1 µM
[17] = second compound 1 µM, first compound 0.0316 µM
[18] = second compound 1 µM, first compound 0.1 µM
[19] = second compound 1 µM, first compound 0.316 µM
[20] = second compound 1 µM, first compound 1 µM

Row | Structure (SMILES) | IC50 (second compound 0.01 µM) [nM] | IC50 (second compound 0.0316 µM) [nM] | IC50 (second compound 0.1 µM) [nM] | IC50 (second compound 0.316 µM) [nM] | IC50 (second compound 1 µM) [nM] | viability, T/C [1] [%] | viability, T/C [2] [%] | viability, T/C [3] [%] | viability, T/C [4] [%] | viability, T/C [5] [%] | viability, T/C [6] [%] | viability, T/C [7] [%] | viability, T/C [8] [%] | viability, T/C [9] [%] | viability, T/C [10] [%] | viability, T/C [11] [%] | viability, T/C [12] [%] | viability, T/C [13] [%] | viability, T/C [14] [%] | viability, T/C [15] [%] | other results
1 | C=CC(=O)N1CCN(c2nc(=O)n(-c3c(C)ccnc3C(C)C)c3nc(-c4c(O)cccc4F)c(F)cc23)C(C)C1 (stereo not given) + CNC(C)C(=O)NC1CN(S(=O)(=O)c2cccc(S(=O)(=O)N3CCC4CCC(C(=O)NC(c5ccccc5)c5ccccc5)N4C(=O)C(NC(=O)C(C)NC)C3)c2)CCC2CCC(C(=O)NC(c3ccccc3)c3ccccc3)N2C1=O | 7990 | 5850 | 5980 | 7420 | 6390 | 97.5 | 108 | 107 | 101 | 92.9 | 104 | 91.7 | 89.8 | 86.9 | 91.8 | 90.6 | 87.5 | 89.5 | 98.9 | 101 | viability, T/C (second compound 0.01 µM, first compound 3.16 µM): 94.3%; viability, T/C (second compound 0.01 µM, first compound 10 µM): 39.1%; viability, T/C (second compound 0.0316 µM, first compound 3.16 µM): 72%; viability, T/C (second compound 0.0316 µM, first compound 10 µM): 30.9%; viability, T/C (second compound 0.1 µM, first compound 3.16 µM): 68.4%; viability, T/C (second compound 0.1 µM, first compound 10 µM): 35.1%; viability, T/C [16]: 92.2%; viability, T/C (second compound 0.316 µM, first compound 3.16 µM): 89.1%; viability, T/C (second compound 0.316 µM, first compound 10 µM): 36.2%; viability, T/C [17]: 82.7%; viability, T/C [18]: 87.6%; viability, T/C [19]: 88.5%; viability, T/C [20]: 73.5%; viability, T/C (second compound 1 µM, first compound 3.16 µM): 89%; viability, T/C (second compound 1 µM, first compound 10 µM): 28.1%
2 | COc1c(OCCCN2CCOCC2)ccc2c3n(c(=NC(=O)c4cnc(N)nc4)nc12)CCN3 + CNC(C)C(=O)NC1CN(S(=O)(=O)c2cccc(S(=O)(=O)N3CCC4CCC(C(=O)NC(c5ccccc5)c5ccccc5)N4C(=O)C(NC(=O)C(C)NC)C3)c2)CCC2CCC(C(=O)NC(c3ccccc3)c3ccccc3)N2C1=O | 44 | 45.1 | 34.9 | 45.9 | 54 | 51.4 | 36.8 | 22.4 | 12 | 54.8 | 34.3 | 21.8 | 9.94 | 49 | 38.8 | 24.7 | 10.4 | 53.8 | 34.5 | 24.2 | viability, T/C (second compound 0.01 µM, first compound 0.00316 µM): 84.3%; viability, T/C (second compound 0.01 µM, first compound 0.01 µM): 79.6%; viability, T/C (second compound 0.0316 µM, first compound 0.00316 µM): 82%; viability, T/C (second compound 0.0316 µM, first compound 0.01 µM): 77.5%; viability, T/C (second compound 0.1 µM, first compound 0.00316 µM): 81.2%; viability, T/C (second compound 0.1 µM, first compound 0.01 µM): 64.9%; viability, T/C (second compound 0.316 µM, first compound 0.00316 µM): 86.4%; viability, T/C (second compound 0.316 µM, first compound 0.01 µM): 80.1%; viability, T/C [16]: 8.5%; viability, T/C (second compound 1 µM, first compound 0.00316 µM): 80.1%; viability, T/C (second compound 1 µM, first compound 0.01 µM): 73.8%; viability, T/C [17]: 63.2%; viability, T/C [18]: 33.7%; viability, T/C [19]: 24.7%; viability, T/C [20]: 9.52%
